Like-named read-outs stand apart in the source and are kept apart here. *1 amine or outer side, *2 acyl side, *3 side chain or, on linkers, in order; H or OH if unused. Where a SMILES comes first, the peptide text is derived from it. Bridges are numbered along the chain shown (N, C = ends). [ ]: non-standard residue; d: D form. ξ: configuration not given here. Trp(βS-Me) = C[C@@H](c1c[nH]c2ccccc12)[C@H](N)C(=O)O; X7 = CCCC[C@@H](C(=O)C[C@@H](CO)C(=O)[*:2])N(C)[*:1]; Phe(3,4,5-F3) = N[C@@H](Cc1cc(F)c(F)c(F)c1)C(=O)O; d(cisHyp) = O=C(O)[C@H]1C[C@@H](O)CN1; Bta = N[C@@H](Cc1csc2ccccc12)C(=O)O; NMeY = CN[C@@H](Cc1ccc(O)cc1)C(=O)O; Hyp = O=C(O)[C@@H]1C[C@@H](O)CN1; NMeF = CN[C@@H](Cc1ccccc1)C(=O)O; dPip(4-aza) = O=C(O)[C@H]1CNCCN1; NMehSer = CN[C@@H](CCO)C(=O)O; NMeNle = CCCC[C@H](NC)C(=O)O; Tle = CC(C)(C)[C@H](N)C(=O)O; Pip = O=C(O)[C@@H]1CCCCN1; hSer = N[C@@H](CCO)C(=O)O; NMeA = CN[C@@H](C)C(=O)O; Orn = NCCC[C@H](N)C(=O)O; Dab = NCC[C@H](N)C(=O)O; Dap = NC[C@H](N)C(=O)O; ξC = NC(CS)C(=O)O; Sar = CNCC(=O)O
Biological target: T1, Human PD-L1/PD-1 (Homo sapiens, UniProt Q9NZQ7)
T1 construct: TVMV protease cleavage site (C); made in house; host or cells: HEK293T cells
Experiment: HTRF Human PD-L1/PD-1 binding assay (PD-1-Ig/PD-L1-His)
Details: PD-L1-His 10 nM, PD-1-Ig 20 nM
Summary of the method: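 HTRF read-out (665/620 nm ratio) after 30 min equilibration with Eu-cryptate anti-Ig mAb (1 nM) and APC anti-His mAb (20 nM). Peptides preincubated 15 min with PD-L1-His (10 nM), then PD-1-Ig (20 nM) added for 15 min.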

[1] = class symbol, read-out: HTRF Human PD-L1/PD-1 Binding Assay IC50 Range
[2] = read-out: HTRF Human PD-L1/PD-1 Binding Assay IC50

T1 sequence (Q9NZQ7 with tags, fused parts or gaps): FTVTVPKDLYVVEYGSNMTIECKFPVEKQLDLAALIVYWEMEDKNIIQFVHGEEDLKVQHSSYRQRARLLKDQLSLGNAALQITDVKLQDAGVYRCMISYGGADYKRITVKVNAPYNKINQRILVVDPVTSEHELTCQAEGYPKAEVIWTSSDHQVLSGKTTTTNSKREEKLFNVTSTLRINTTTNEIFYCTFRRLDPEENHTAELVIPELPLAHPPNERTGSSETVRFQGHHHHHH

SMILES	IC50 [1] [nM]	IC50 [2] [nM]
CCCC[C@H]1C(=O)N(C)[C@@H](CCCC)C(=O)N[C@@H](CCC(=O)O)C(=O)N[C@H](C(=O)NCC(N)=O)CSCC(=O)N[C@@H](Cc2ccc(OC)cc2)C(=O)N(C)[C@@H](C)C(=O)N[C@@H](CC(=O)O)C(=O)N2CCC[C@H]2C(=O)N[C@@H](Cc2cnc[nH]2)C(=O)N[C@@H](CCCCN)C(=O)N2C[C@H](O)C[C@H]2C(=O)N[C@@H](Cc2c[nH]c3ccccc23)C(=O)N[C@@H](CC(=O)O)C(=O)N[C@@H](Cc2c[nH]c3ccccc23)C(=O)N1C [Example 7131] ({CH2CO}-Y(Me)[NMeA]DPHK[Hyp]WDW[NMeNle][NMeNle]ECG-NH2; thioether N-14)	1 to 9.9	–
CCCC[C@H]1C(=O)N(C)[C@@H](C)C(=O)N[C@@H](CCCNC(=N)N)C(=O)NC(C(=O)NCC(N)=O)CSCC(=O)N[C@@H](Cc2ccc(O)cc2)C(=O)N(C)[C@@H](C)C(=O)N[C@@H](CC(N)=O)C(=O)N2CCC[C@H]2C(=O)N[C@@H](CC(N)=O)C(=O)N[C@@H](CC(C)C)C(=O)N2C[C@H](O)C[C@H]2C(=O)N[C@@H](Cc2c[nH]c3ccccc23)C(=O)N[C@@H](CO)C(=O)N[C@@H](Cc2csc3ccccc23)C(=O)N1C (stereo partly drawn) [Example 9139] ({CH2CO}-Y[NMeA]NPNL[Hyp]WS[Bta][NMeNle][NMeA]R[ξC]G-NH2; thioether N-14)	1 to 9.9	–
CCCC[C@H]1C(=O)N(C)[C@@H](CCCC)C(=O)N[C@@H](CCCNC(=N)N)C(=O)N[C@H](C(=O)NCC(N)=O)CSCC(=O)N[C@@H](Cc2ccc(O)cc2)C(=O)N2CCCC[C@H]2C(=O)N[C@@H](CCC(=O)O)C(=O)N2CCC[C@H]2C(=O)N[C@@H](Cc2c[nH]cn2)C(=O)N[C@@H](CCCN)C(=O)N2C[C@H](O)C[C@H]2C(=O)N[C@@H](Cc2c[nH]c3ccccc23)C(=O)N[C@@H](CO)C(=O)N[C@@H](Cc2c[nH]c3ccccc23)C(=O)N1C [Example 1538] ({CH2CO}-Y[Pip]EPH[Orn][Hyp]WSW[NMeNle][NMeNle]RCG-NH2; thioether N-14)	10 to 99.9	–
CCCC[C@H]1C(=O)N2C[C@H](O)C[C@@H]2C(=O)N[C@@H](CC(=O)O)C(=O)N[C@@H](C(C)C)C(=O)N(C)[C@@H](Cc2ccccc2)C(=O)N[C@@H](CCC(=O)O)C(=O)N2CCNC[C@@H]2C(=O)N[C@@H](Cc2c[nH]c3ccccc23)C(=O)N[C@@H](Cc2ccc(O)cc2)C(=O)N[C@@H](CC(C)C)C(=O)N[C@H](C(=O)NCC(N)=O)CSCC(=O)N[C@@H](Cc2cc(F)c(F)c(F)c2)C(=O)N(C)[C@@H](Cc2ccccc2)C(=O)N1C [Example 10163] ({CH2CO}-[Phe(3,4,5-F3)][NMeF][NMeNle][d(cisHyp)]DV[NMeF]E[dPip(4-aza)]WYLCG-NH2; thioether N-13)	10 to 99.9	–
CCCC[C@H]1C(=O)N2C[C@H](O)C[C@@H]2C(=O)N[C@@H](CC(=O)O)C(=O)N[C@@H](C(C)C)C(=O)N(C)[C@@H](Cc2ccccc2)C(=O)N[C@@H](CCC(=O)O)C(=O)N2C[C@H](O)C[C@@H]2C(=O)N[C@@H](Cc2c[nH]c3ccccc23)C(=O)N[C@@H](Cc2ccc(O)cc2)C(=O)N[C@@H](CCCN)C(=O)N[C@H](C(=O)NCC(N)=O)CSCC(=O)N[C@@H](Cc2cc(F)c(F)c(F)c2)C(=O)N(C)[C@@H](Cc2ccc(O)cc2)C(=O)N1C [Example 10638] ({CH2CO}-[Phe(3,4,5-F3)][NMeY][NMeNle][d(cisHyp)]DV[NMeF]E[d(cisHyp)]WY[Orn]CG-NH2; thioether N-13)	–	12.5
CCCC[C@H]1C(=O)N(C)[C@@H](CCCC)C(=O)N[C@@H](C)C(=O)N[C@H](C(=O)NCC(N)=O)CSCC(=O)N[C@@H](Cc2ccc(O)cc2)C(=O)N2CCCC[C@H]2C(=O)N[C@@H](CC(N)=O)C(=O)N2CCC[C@H]2C(=O)N[C@@H](Cc2cnc[nH]2)C(=O)N[C@@H](CCC(N)=O)C(=O)N2CCNC[C@H]2C(=O)N[C@@H](Cc2c[nH]c3ccccc23)C(=O)N[C@@H](CO)C(=O)N[C@@H](Cc2c[nH]c3ccccc23)C(=O)N1C [Example 1276]	–	468
CCCC[C@H]1C(=O)N(C)[C@@H](CCCC)C(=O)N[C@@H](CCC(=O)O)C(=O)N[C@H](C(=O)NCC(N)=O)CSCC(=O)N[C@@H](Cc2ccc(OC)cc2)C(=O)N(C)[C@@H](C)C(=O)N[C@@H](CC(=O)O)C(=O)N2CCC[C@H]2C(=O)N[C@@H](CN)C(=O)N[C@@H](CCC(=O)O)C(=O)N2C[C@H](O)C[C@H]2C(=O)N[C@@H](Cc2c[nH]c3ccccc23)C(=O)N[C@@H](CCN)C(=O)N[C@@H](Cc2c[nH]c3ccccc23)C(=O)N1C [Example 7113] ({CH2CO}-Y(Me)[NMeA]DP[Dap]E[Hyp]W[Dab]W[NMeNle][NMeNle]ECG-NH2; thioether N-14)	1 to 9.9	–
CCCC[C@H]1C(=O)N(C)[C@@H](CCCC)C(=O)N[C@@H](CCCNC(=N)N)C(=O)N[C@H](C(=O)NCC(N)=O)CSCC(=O)N[C@@H](Cc2ccc(O)cc2)C(=O)N(C)[C@@H](C)C(=O)N[C@@H](CC(N)=O)C(=O)N2CCC[C@H]2C(=O)N[C@@H](CCN)C(=O)N[C@@H](CC(C)C)C(=O)N2C[C@H](O)C[C@H]2C(=O)N[C@@H](Cc2c[nH]c3ccccc23)C(=O)N[C@@H](C(C)(C)C)C(=O)N[C@@H](Cc2c[nH]c3ccccc23)C(=O)N1C [Example 11001] ({CH2CO}-Y[NMeA]NP[Dab]L[Hyp]W[Tle]W[NMeNle][NMeNle]RCG-NH2; thioether N-14)	10 to 99.9	–
CCCC[C@H]1C(=O)N[C@@H](CC(N)=O)C(=O)N2CCC[C@H]2C(=O)N[C@@H](Cc2c[nH]cn2)C(=O)N[C@@H](CCC(=O)O)C(=O)N2C[C@H](O)C[C@H]2C(=O)N[C@@H]([C@@H](C)c2c[nH]c3ccccc23)C(=O)N[C@@H](CCN)C(=O)N[C@@H](Cc2c[nH]c3ccccc23)C(=O)N(C)[C@@H](C)C(=O)N(C)[C@@H](C)C(=O)N[C@@H](CC(C)C)C(=O)N[C@H](C(=O)NCC(N)=O)CSCC(=O)N[C@@H](Cc2ccc(O)cc2)C(=O)N1C [Example 10540] ({CH2CO}-Y[NMeNle]NPHE[Hyp][Trp(βS-Me)][Dab]W[NMeA][NMeA]LCG-NH2; thioether N-14)	1000 to 10000	–
CCCC[C@H]1C(=O)N(C)[C@@H](CCCC)C(=O)N[C@@H](CCC(=O)O)C(=O)N[C@H](C(=O)NCC(N)=O)CSCC(=O)N[C@@H](Cc2ccc(O)cc2)C(=O)N2CCCC[C@H]2C(=O)N[C@@H](CC(=O)O)C(=O)N2CCC[C@H]2C(=O)N[C@@H](Cc2cnc[nH]2)C(=O)N[C@@H](CCC(=O)O)C(=O)N2C[C@H](O)C[C@H]2C(=O)N[C@@H](Cc2c[nH]c3ccccc23)C(=O)N[C@@H](CO)C(=O)N[C@@H](Cc2csc3ccccc23)C(=O)N1C [Example 1512] ({CH2CO}-Y[Pip]DPHE[Hyp]WS[Bta][NMeNle][NMeNle]ECG-NH2; thioether N-14)	10 to 99.9	–
CCCC[C@H]1C(=O)N(C)[C@@H](CCCC)C(=O)C[C@@H](CO)C(=O)NC(C(=O)NCC(N)=O)CSCC(=O)N[C@@H](Cc2ccc(O)cc2)C(=O)N(C)[C@@H](C)C(=O)N[C@@H](CC(N)=O)C(=O)N2CCC[C@H]2C(=O)N[C@@H](CC(N)=O)C(=O)N[C@@H](CC(C)C)C(=O)N2CCC[C@H]2C(=O)N[C@@H](Cc2c[nH]c3ccccc23)C(=O)N[C@@H](CO)C(=O)N[C@@H](Cc2csc3ccccc23)C(=O)N1C (stereo partly drawn) [Example 9141] ({CH2CO}-Y[NMeA]NPNLPWS[Bta][NMeNle][X7][ξC]G-NH2; thioether N-13)	10 to 99.9	–
CCCC[C@H]1C(=O)N(C)[C@@H](CCOC)C(=O)N[C@@H](CCC(=O)O)C(=O)N[C@H](C(=O)NCC(N)=O)CSCC(=O)N[C@@H](Cc2ccc(O)cc2)C(=O)N(C)[C@@H](C)C(=O)N[C@@H](CC(N)=O)C(=O)N2CCC[C@H]2C(=O)N[C@@H](Cc2c[nH]cn2)C(=O)N[C@@H](CCC(N)=O)C(=O)N2C[C@H](O)C[C@H]2C(=O)N[C@@H](Cc2c[nH]c3ccccc23)C(=O)N[C@@H](CO)C(=O)N[C@@H](Cc2c[nH]c3ccccc23)C(=O)N1C [Example 10147] ({CH2CO}-Y[NMeA]NPHQ[Hyp]WSW[NMeNle][NMehSer](Me)ECG-NH2; thioether N-14)	1 to 9.9	–
CCCC[C@H]1C(=O)N2C[C@H](O)C[C@@H]2C(=O)N[C@@H](CC(=O)O)C(=O)N[C@@H](C(C)C)C(=O)N(C)[C@@H](Cc2ccccc2)C(=O)N[C@@H](CC(N)=O)C(=O)N2C[C@H](O)C[C@@H]2C(=O)N[C@@H](Cc2c[nH]c3ccccc23)C(=O)N[C@@H](Cc2ccc(O)cc2)C(=O)N[C@@H](CCCCN)C(=O)N[C@H](C(=O)NCC(N)=O)CSCC(=O)N[C@@H](Cc2cc(F)c(F)c(F)c2)C(=O)N(C)[C@@H](Cc2ccccc2)C(=O)N1C [Example 9362] ({CH2CO}-[Phe(3,4,5-F3)][NMeF][NMeNle][d(cisHyp)]DV[NMeF]N[d(cisHyp)]WYKCG-NH2; thioether N-13)	1 to 9.9	–
CCCC[C@H]1C(=O)N2CCC[C@@H]2C(=O)N[C@@H](CC(=O)O)C(=O)N[C@@H](C)C(=O)N(C)[C@@H](Cc2ccccc2)C(=O)N[C@@H](Cc2ccc(O)cc2)C(=O)N(C)CC(=O)N[C@@H](Cc2c[nH]c3ccccc23)C(=O)N[C@@H](Cc2ccc(O)cc2)C(=O)N[C@@H](CC(C)C)C(=O)N[C@H](C(=O)NCC(N)=O)CSCC(=O)N[C@@H](Cc2cc(F)c(F)c(F)c2)C(=O)N(C)[C@@H](Cc2ccccc2)C(=O)N1C [Example 10053] ({CH2CO}-[Phe(3,4,5-F3)][NMeF][NMeNle][dP]DA[NMeF]Y[Sar]WYLCG-NH2; thioether N-13)	10 to 99.9	–
CCCC[C@H]1C(=O)N(C)[C@@H](CCCC)C(=O)N[C@@H](CCCNC(=N)N)C(=O)NC(C(=O)NCC(N)=O)CSCC(=O)N[C@@H](Cc2ccc(O)cc2)C(=O)N(C)[C@@H](C)C(=O)N[C@@H](CC(N)=O)C(=O)N2CCC[C@H]2C(=O)N[C@@H](CCO)C(=O)N[C@@H](CC(C)C)C(=O)N2CCC[C@H]2C(=O)N[C@@H](Cc2c[nH]c3ccccc23)C(=O)N[C@@H](CO)C(=O)N[C@@H](Cc2c[nH]c3ccccc23)C(=O)N1C (stereo partly drawn) [Example 9148] ({CH2CO}-Y[NMeA]NP[hSer]LPWSW[NMeNle][NMeNle]R[ξC]G-NH2; thioether N-14)	1000 to 10000	–
